Data on 1 molecule can be found in patent publication US10792291B2, “Applications for levonorgestrel in preparing anti-ovarian cancer products” (SHANGHAI JIAO TONG UNIVERSITY, priority 2015, dated 2020).

Type in all cases: cell-based
Experiment [1] relates to SKOV-3 ovarian cancer cells. Description: CELLTITER-GLO Luminescent Cell Viability Assay, SKOV-3 ovarian cancer cells. An excerpt:
In example 1, CELLTITER-GLO was used to test levonorgestrel against ovarian cancer. m) A cell counter was used to count the number of suspended cells and adjust the cell suspension to an appropriate density in the plate to carry out cell plating experiments. n) SKOV-3 cells were handled as described above, and a SKOV-3 96-well cell culture plate was obtained. The complete medium for SKOV-3 cells was McCOY'S 5A (a live product), Cat #16600082, with a cells/well density of 12000. 2. The drug analyte levonorgestrel was prepared and administered (200× final concentration): a) DMSO was used to dilute the analyte levonorgestrel to 20 mM for use. b) 79 μL of the 20 mM analyte prepared in step a) was added to the first well in the first row of the dilution plate, and then 54 μL of DMSO solution was added to the second through ninth wells of the first row. […] The final concentrations (μM) of the analyte drug in wells 2-10 in FIG. 1 are, in order: 100, 31.64557, 10.01442, 3.16912, 1.002886, 0.317369, 0.100433, 0.031783, 0.010058; B. CELLTITER-GLO Luminescent Cell Viability Assay System a) Before testing, the SKOV-3 96-well drug screening plate described in 3 above was stabilized to room temperature for 20-30 minutes. c) 100 μl of CellTiter-Glo reagent (prepared as described in 1 above) was added to all drug screening plates and mixed evenly. d) It was thoroughly oscillated in a 96-well microplate oscillator for 2 minutes to allow the cells to undergo full lysis. e) It was stored away from light at room temperature for 15 minutes before carrying out luminescent signal detection to ensure signal stability. f) An EnSpire multi-function plate reader was used at 570 nm to read the luminescent signals. g) Data was processed and analyzed.
For orientation: ATP-based viability assays read luminescence as a measure of living cells.

Experiment [2] deals with NCI-H441 human lung adenocarcinoma cells. Description: CELLTITER-GLO cell viability assay, NCI-H441 cells (same method). As for the experimental part:
(§1) In the examples below, the product sources for the SKOV-3 ovarian cancer cells, the NCI-H1993 non-small cell human lung cancer cells, and the NCI-H441 human lung adenocarcinoma cells are as follows: In example 1, CELLTITER-GLO was used to test levonorgestrel against ovarian cancer. c) The SKOV-3 96-well cell plates prepared in step 1 were removed from the incubator, and 10 μl of the cell culture media (10× final concentration) with varying drug concentrations as described in b) above was added to the SKOV-3 96-well cell culture plate row-by-row as shown in FIG. 1. It was placed into a CO2 incubator at 37° C. for 72 hours, obtaining the SKOV-3 96-well drug screening plate. The final concentrations (μM) of the analyte drug in wells 2-10 in FIG. 1 are, in order: 100, 31.64557, 10.01442, 3.16912, 1.002886, 0.317369, 0.100433, 0.031783, 0.010058; B. CELLTITER-GLO Luminescent Cell Viability Assay System c) 100 μl of CellTiter-Glo reagent (prepared as described in 1 above) was added to all drug screening plates and mixed evenly. f) An EnSpire multi-function plate reader was used at 570 nm to read the luminescent signals. The same method was used to test levonorgestrel's action on the IC50 values of NCI-H1993 human lung non-small cell carcinoma cells and NCI-H441 human lung adenocarcinoma cells; results are shown in Table 1.

Experiment [3] has as its system NCI-H1993 human lung non-small cell carcinoma cells. Description: CELLTITER-GLO cell viability assay, NCI-H1993 cells (same method). As for the experimental part:
as §1

For orientation: IC50 means the concentration that inhibits the measured activity by half. Read a high IC50 as lower potency. By EC50 is commonly meant the concentration that produces a half-maximal response. A high value points to a less potent agent.

Bounds are passed on as bounds.

Consider `C#C[C@]1(O)CC[C@H]2[C@@H]3CCC4=CC(=O)CC[C@@H]4[C@H]3CC[C@@]21CC` [levonorgestrel], for which the concentration for half-maximal inhibition (IC50) is 3.34 µM in experiment [1] (Homo sapiens, SK-OV-3, SKOV-3 cells, 72 hours, CellTiter-Glo); not below 100 µM in experiment [2]; not below 100 µM in experiment [3]. In experiment [1] (Homo sapiens, SK-OV-3, SKOV-3 cells, 72 hours, CellTiter-Glo, FIG. 2), this molecule gave a half-maximal effective concentration (EC50) of 3.08 µM. The “effect on the proliferation of ovarian cancer cells” value in experiment [1] (compared with NCI-H441 and NCI-H1993 lung cancer cells) is recorded as “specific inhibitory effect”.
